Series [1] deals with HIV-1 strains, for e.g., 92HT599. Briefly: Antiviral activity: p24 estimation in MT-2 cells infected with HIV-1. Particulars: Human immunodeficiency virus 1, MT2; MT-2 cells infected with HIV-1, p24, ~96 hours; read-out: Antiviral activity IC50 (nM) Efficacy IC50. It is filed as cell-based. On the procedure: MT-2 cells were infected with required number of TCID50's of HIV-1 strains, for e.g., 92HT599. The infected cells were plated at the concentration of 30, 000 cells per well in a 96 well plate. Test compound was added to the 96 well plate with the final concentration of DMSO (vehicle—not more than 1%). The plates are then incubated in a CO2 incubator for ˜96 hours (˜4 days) for viral infection. At the end of incubation period an aliquot from each well was taken for p24 estimation. The quantitation of p24 is an estimated index for antiviral activity of the compound. Percent inhibition was calculated with reference to control values (vehicle controls).
p-24 estimation was carried out using Advance biosciences kit as per the procedure detailed by supplier.

Series [2] is described as follows: Single dose oral pharmacokinetic study. It is filed as in vivo. The following applies: mouse, mice, 30 mg/kg, plasma; for AUC(0-t): read-out: Mice oral PK @30 mg/kg AUC 0-t; for Cmax: read-out: Mice oral PK @30 mg/kg Cmax. Here is the method: The test item was administered through oral route to animals (rat/mice) at 30 mg/kg dose in a suitable vehicle at 10 ml/kg dose volume. Blood samples (˜50 uL at each time point) were collected from retro-orbital plexus using K3 EDTA as anticoagulant in eppend; orf tubes at defined time intervals under light ether anesthesia. The samples were centrifuged at 3500×g to separate plasma and stored at −80° C. until analysis.
Sample analysis: Test samples were analyzed using LC-MS-MS after developing fit-for-purpose method for each of test compound.

One may read the IC50 as the concentration at which inhibition is half-maximal.

`C=C(C)[C@@H]1CC[C@]2(C(=O)N3C[C@H](OCCOC)C[C@H]3c3nc(-c4cccnc4)c[nH]3)CC[C@]3(C)[C@H](CC[C@@H]4[C@@]5(C)CC[C@H](OC(=O)[C@H]6C[C@@H](C(=O)O)C6(C)C)C(C)(C)[C@@H]5CC[C@]43C)[C@@H]12` [Compound 10, (1R,3S)-3-((((1R,3aS,5aR,5bR,7aR,9S,11bR,11bR,13aR,13bR)-3a-((2S,4R)-4-(2-methoxyethoxy)-2-(4-(pyridin-3-yl)-1H-imidazol-2-yl)pyrrolidine-1-carbonyl)-5a,5b,8,8,11a-pentamethyl-1-(prop-1-en-2-yl)icosahydro-1H-cyclopenta[a]chrysen-9-yl)oxy)carbonyl)-2,2-dimethylcyclobutane-1-carboxylic acid]: the 50% inhibitory concentration (IC50) in series [1] was 2.82 nM. For the same molecule, in series [2], the AUC(0-t) came out at 301 µg·h/mL and the Cmax turned out to be 17.9 µg/mL.

Consider `C=C(C)[C@@H]1CC[C@]2(C(=O)N3CCC[C@H]3c3nnc(-c4ccccc4)o3)CC[C@]3(C)[C@H](CC[C@@H]4[C@@]5(C)CC[C@H](OC(=O)[C@H]6C[C@@H](C(=O)O)C6(C)C)C(C)(C)[C@@H]5CC[C@]43C)[C@@H]12` [Compound 11, (1R,3S)-2,2-dimethyl-3-((((1R,3aS,5aR,5bR,7aR,9S,11aR,11bR,13aR,13bR)-5a,5b,8,8,11a-pentamethyl-3a-((S)-2-(5-phenyl-1,3,4-oxadiazol-2-yl)pyrrolidine-1-carbonyl)-1-(prop-1-en-2-yl)icosahydro-1H-cyclopenta[a]chrysen-9-yl)oxy)carbonyl)cyclobutane-1-carboxylic acid], for which the IC50 in series [1] is 5.96 nM. In addition, in series [2], the AUC(0-t) turned out to be 403 µg·h/mL and the Cmax turned out to be 16.3 µg/mL.

Consider `C=C(C)[C@@H]1CC[C@]2(C(=O)N3CCC[C@H]3c3nc(C(C)(C)C)co3)CC[C@]3(C)[C@H](CC[C@@H]4[C@@]5(C)CC[C@H](OC(=O)[C@H]6C[C@@H](C(=O)O)C6(C)C)C(C)(C)[C@@H]5CC[C@]43C)[C@@H]12` [Compound 12, (1R,3S)-3-((((1R,3aS,5aR,5bR,7aR,9S,11aR,11bR,13aR,13bR)-3a-((S)-2-(4-(tert-butyl)oxazol-2-yl)pyrrolidine-1-carbonyl)-5a,5b,8,8,11a-pentamethyl-1-(prop-1-en-2-yl)icosahydro-1H-cyclopenta[a]chrysen-9-yl)oxy)carbonyl)-2,2-dimethylcyclobutane-1-carboxylic acid], for which the IC50 in series [1] is 139 nM. For the same molecule, in series [2], the AUC(0-t) worked out at 395 µg·h/mL and the Cmax worked out at 13.2 µg/mL.

For `C=C(C)[C@@H]1CC[C@]2(C(=O)N3CCC[C@H]3c3nc(C(C)C)c[nH]3)CC[C@]3(C)[C@H](CC[C@@H]4[C@@]5(C)CC[C@H](OC(=O)[C@H]6C[C@@H](C(=O)O)C6(C)C)C(C)(C)[C@@H]5CC[C@]43C)[C@@H]12` [Compound 14, (1R,3S)-3-((((1R,3aS,5aR,5bR,7aR,9S,11aR,11bR,13aR,13bR)-3a-((S)-2-(4-isopropyl-1H-imidazol-2-yl)pyrrolidine-1-carbonyl)-5a,5b,8,8,11a-pentamethyl-1-(prop-1-en-2-yl)icosahydro-1H-cyclopenta[a]chrysen-9-yl)oxy)carbonyl)-2,2-dimethylcyclobutane-1-carboxylic acid], the IC50 in series [1] is 0.138 nM. Also, in series [2], the AUC(0-t) was 437 µg·h/mL and the Cmax came to 19.6 µg/mL.

On to `C=C(C)[C@@H]1CC[C@]2(C(=O)N3CCC[C@H]3c3ncc(-c4ccccc4)o3)CC[C@]3(C)[C@H](CC[C@@H]4[C@@]5(C)CC[C@H](OC(=O)[C@H]6C[C@@H](C(=O)O)C6(C)C)C(C)(C)[C@@H]5CC[C@]43C)[C@@H]12` [Compound 15, (1R,3S)-2,2-dimethyl-3-((((1R,3aS,5aR,5bR,7aR,9S,11aR,11bR,13aR,13bR)-5a,5b,8,8,11a-pentamethyl-3a-((S)-2-(5-phenyloxazol-2-yl)pyrrolidine-1-carbonyl)-1-(prop-1-en-2-yl)icosahydro-1H-cyclopenta[a]chrysen-9-yl)oxy)carbonyl)cyclobutane-1-carboxylic acid], for which the IC50 in series [1] was 124 nM. Moreover, in series [2], the AUC(0-t) came to 208 µg·h/mL and the Cmax stood at 6.51 µg/mL.

The record behind these values is patent publication US20170129916A1, “NOVEL BETULINIC PROLINE IMIDAZOLE DERIVATIVES AS HIV INHIBITORS” (HETERO RESEARCH FOUNDATION, priority 2014, published 2017).
